Values joined by “and” are separate entries in the source; they are usually repeats but may differ in a detail not shown here. Equal entries are not always repeated.
Assays:
AF9-DOT1L interaction [1] = biological target: T1, AF9-DOT1L interaction (Homo sapiens, UniProt P42568); assay: Alpha assay, AF9 AHD-DOT1L peptide interaction; format: binding; conditions: for IC50: read-out: IC50, inhibition of AF9-DOT1L interaction
T1 construct: cDNA for human AF9 AHD domain (475-568) and ENL AHD domain (489-559) was synthesized; made in house; host or cells: E. coli BL21(DE3)
T1 sequence (P42568 475-568): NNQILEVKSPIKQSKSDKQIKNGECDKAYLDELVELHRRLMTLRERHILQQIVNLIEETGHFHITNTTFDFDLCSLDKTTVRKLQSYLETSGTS
From the text: (§1) We developed an Alpha (amplified luminescent proximity homogeneous assay) assay to determine the binding and inhibition of the PPI between maltose-binding protein (MBP)-tagged AF9 AHD and a biotin-labeled DOT1L peptide, using AlphaLisa streptavidin donor beads and anti-MBP acceptor beads. Laser excitation to the donor beads generates singlet oxygen radicals, which can travel for <200 nm in solution and cannot reach the free acceptor beads. The PPI brings the DOT1L coated donor beads and AHD coated acceptor beads together, allowing the radicals to activate the acceptor beads and produce luminescence. […] We also developed a fluorescence polarization (FP) assay. A fluorescein-labeled DOT1L peptide has a higher freedom in solution with a lower polarization value.
Alpha assays. Alpha assays were developed using Perkin-Elmer AlphaLisa anti-MBP kit, which contains streptavidin donor beads and anti-MBP acceptor beads. The assay was performed using a MBP-protein (5 nM), a biotinylated peptide (40 nM), and increasing concentrations of a compound in 25 µL buffer (PBS with 0.5 % BSA, pH 7.5) in 384-well plates according to the manufacturer's protocol and measured with a Tecan SPARK microplate reader. Data were imported into Prism (version 5.0), and IC50 values from 3 independent experiments with standard deviation were obtained by using a standard dose-response curve fitting.

AF9-DOT1L interaction [2] = biological target: T1, AF9-DOT1L interaction; assay: Fluorescence polarization (FP) inhibition assay, AF9-DOT1L; format: binding
From the text: as §1
Fluorescence polarization assay. It was performed in 96-well black microplates with each well containing a Fluorescein-labeled peptide (2 nM) and increasing concentration of a AF9/ENL protein in a buffer (20 mM HEPES, pH 7.5, 0.01% Triton X-100, 100 µL) for Kd determination. For IC50 determination, a Fluorescein-labeled peptide (2 nM), AF9/ENL protein (100 nM) and increasing concentration of a compound in the same buffer were placed in each well. Upon incubation of 1h, the FP value of each well was determined using a Tecan SPARK microplate reader. Data were similarly processed to obtain Kd or IC50 values.

IC50 (AF9-DOT1L interaction [1])	IC50 (AF9-DOT1L interaction [2]) [µM]	IC50, inhibition of AF9-DOT1L interaction (AF9-DOT1L interaction [1])	Compound
29.2 µM	–	–	CC(C)(C)c1ccc(-n2cc(C(=O)NCC3CCNCC3)nc2-c2ccccc2)cc1 [Compound 8]
7.8 µM	–	–	CC(C)c1nc(C(=O)NC2CCNCC2)cn1-c1ccc(C(C)(C)C)cc1 [Compound 5]
26.5 µM and ~25 µM	~25	–	CC(C)(C)c1ccc(-c2ccc(-n3cc(C(=O)NC4CCNCC4)nc3-c3ccccc3)cc2)cc1 [Compound 2]
24.8 µM	–	–	CC(C)(C)c1ccc(-n2cc(C(=O)NC3CCNCC3)nc2C2CCCCC2)cc1 [Compound 4]
> 50 µM	–	–	Cc1nc(C(=O)NC2CCNCC2)cn1-c1ccc(C(C)(C)C)cc1 [Compound 6]
> 50 µM	–	inactive	CC(C)(C)c1ccc(-n2cc(C(=O)Nc3ccc(Cl)c(F)c3)nc2-c2ccccc2)cc1 [Compound 9]

Source: paper PMC8344022, “Small-molecule inhibitor of AF9/ENL-DOT1L/AF4/AFF4 interactions suppresses malignant gene expression and tumor growth” (Theranostics, 2021)
